Where two headings read alike, the source gives them in different places.
Columns and labels:
[1] = target: in vitro solubilized EmrE (Escherichia coli, UniProt P23895); settings: cited from earlier work
[2] = target: T1, EmrE (dimeric, detergent-free OspA-EmrE-ApoAI*) (UniProt P02647+P23895); assay: Ligand binding by tryptophan fluorescence quenching, in vivo solubilized EmrE; design: species or system E. coli; settings: for binding affinity of OspA-EmrE-ApoAI* compared to detergent-solubilized EmrE: 10 μM protein, EmrE comparator in DDM buffer
T1 construct: made in house; host or cells: E. coli BL21(DE3), pET28a
Method: Fluorescence spectra of protein samples were collected using a Fluorolog-Tau-3 time-resolved spectrofluorometer (Horiba). Protein concentration of OspA-EmrE-ApoAI* in SEC buffer and EmrE in DDM containing buffer (20 mM Tris-HCl, pH 7.5, 150 mM NaCl, and 0.08% w/v DDM) was 10 μM. Fluorescence spectra using a 295-nm excitation were collected after each volume of ligand. A small magnetic stir bar was added to the 1-cm path-length quartz cuvette containing either the sample or buffer. The stirring speed was set such that the surface was not noticeably disturbed. Approximately 1 min was allowed between the addition of ligand and the beginning of spectra collection. A total of 3 replicates were performed with the first sample preparation to control for experimental variability. After this, only one experimental replicate of the following second and third sample preparations were performed. Thus, each ligand-binding curve reflects the average of 3 replicates from 3 different protein preparations to control for biological and preparation variability. A 10-nm slit width was used for both excitation and emission. The interval was set at 2.0 nm and the integration time at 0.1 s. Only one scan of the emission between 300 and 400 nm was collected per titration. […] Quenching of fluorescence was recorded and plotted using GraphPad PRISM 6.
It was next determined whether EmrE that had been solubilized by fusion to ApoAI* was able to bind to known ligands. […] There are a total of 14 aromatic amino acids in EmrE (4 tryptophans, 5 tyrosines, and 5 phenylalanines), some of which participate in ligand binding and protein stability and permit determination of binding constants based on fluorescence quenching (Bay et al., “Spectroscopic Analysis of Small Multidrug Resistance Protein EmrE in the Presence of Various Quaternary Cation Compounds,” Biochim. Biophys. Acta 1818:1318-31 (2012), which is hereby incorporated by reference in its entirety). The ligand binding activity of dimeric, detergent-free OspA-EmrE-ApoAI* was measured and compared to detergent-solubilized EmrE. […]

[3] = target: T2, cytochrome P450c17 (17α-hydroxylase/17,20-lyase; CYP17A1) (Homo sapiens, UniProt P05093); settings: cited from earlier work
T2 sequence (P05093 1-508): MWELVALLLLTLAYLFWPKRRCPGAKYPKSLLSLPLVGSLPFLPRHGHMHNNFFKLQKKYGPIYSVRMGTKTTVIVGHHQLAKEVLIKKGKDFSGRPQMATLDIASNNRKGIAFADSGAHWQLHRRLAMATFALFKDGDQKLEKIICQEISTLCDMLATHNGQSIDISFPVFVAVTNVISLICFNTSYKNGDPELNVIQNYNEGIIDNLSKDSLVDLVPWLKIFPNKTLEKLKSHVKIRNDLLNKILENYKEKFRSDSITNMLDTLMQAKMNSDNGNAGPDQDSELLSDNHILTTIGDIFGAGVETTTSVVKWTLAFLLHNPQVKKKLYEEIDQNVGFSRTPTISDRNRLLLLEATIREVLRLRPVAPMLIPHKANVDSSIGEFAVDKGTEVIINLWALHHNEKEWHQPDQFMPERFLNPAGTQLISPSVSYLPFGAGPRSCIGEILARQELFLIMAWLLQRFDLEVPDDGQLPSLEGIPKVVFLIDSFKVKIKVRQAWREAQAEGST

CYP17A1 = target: T3, CYP17A1 (Homo sapiens, UniProt P05093); assay: Lyase assay: augmentation of CYP17A1 lyase activity by cyt b5 variants; type: biochemical
T3 construct: microsomes containing native CYP17A1 (5 pmol); made in house; host or cells: transformed yeast (microsomes)
T3 sequence (P05093 1-508): T2 sequence (P05093 1-508)
Method: In a 2-ml polypropylene tube, microsomes containing native CYP17A1 (5 pmol) and cytochrome P450 oxidoreductase ([…]), at room temperature for 5 min before adding substrate. The reaction mixture was then diluted to 0.2 ml with 50 mM potassium phosphate buffer (pH 7.4), and substrate 17-hydroxypregnelonone (17-P5; 5 μM with 80,000 CPM in methanol, 2% of incubation volume) was added. The resulting mixture was pre-incubated at 37° C. for 3 min before adding NADPH (1 mM) and incubating at 37° C. for another 20 min. The reaction mixture was extracted with 1 ml dichloromethane, and the organic phase was dried under nitrogen flow. Steroids were analyzed using an Agilent 1260 Infinity HPLC system with UV detector and β-RAM4 in-line scintillation counter (LabLogic, Brandon, Fla.). Extracted steroid products were dissolved in 20 μl of methanol, and 5 μl injections were resolved with a 50×2.1 mm, 2.6 μm, C8 Kinetex column (Phenomenex, Torrance, Calif.), equipped with a guard column at a flow rate of 0.4 mL min^−1. A methanol/water linear gradient was used: 27% methanol from 0 to 0.5 min, 39% to 16 min, 44% to 20 min, 60% to 22 min, 71% to 30 min, 75% to 30.5 min, 27% to 33 min. Products were identified by retention times of external standards chromatographed at the beginning and ends of the experiments. The flow rate of the scintillation cocktail (Bio-SafeII, Research Products International, Mount Prospect, Ill.) was 1.2 mL min^−1, and the data were processed with Laura4 software (LabLogic).

**Q.** For `C[n+]1ccc(-c2cc[n+](C)cc2)cc1` [MV, methyl viologen], which Kd ([1]; in vitro solubilized EmrE in dodecylmaltoside) is on record?
**A.** 46.2 µM

**Q.** What about the Kd ([1]; in vitro solubilized EmrE in small unilamellar vesicles) of the same molecule?
**A.** 38.2 µM

**Q.** What about the Kd ([1]; in vitro solubilized EmrE in sodium dodecyl sulphate) of the same molecule?
**A.** 5.4 µM

**Q.** What about the “binding affinity of OspA-EmrE-ApoAI* compared to detergent-solubilized EmrE” value [2] of the same molecule?
**A.** higher

**Q.** And the Kd ([2]; in vivo solubilized EmrE, detergent-free)?
**A.** 48 µM

**Q.** With `c1ccc([P+](c2ccccc2)(c2ccccc2)c2ccccc2)cc1` [TPP+, tetraphenylphosphonium] as the molecule, how does the “binding affinity of OspA-EmrE-ApoAI* compared to detergent-solubilized EmrE” value [2] read?
**A.** higher

B1: detergent-solubilized cyt b5: wild-type human cytochrome b5 that had been detergent solubilized (protein)
chain: MAEQSDEAVKYYTLEEIQKHNHSKSTWLILHHKVYDLTKFLEEHPGGEEVLREQAGGDATENFEDVGHSTDAREMSKTFIIGELHPDDRPKLNKPPETLITTIDSSSSWWTNWVIPAISAVAVALMYRLYMAED
**Q.** What does the source list for B1?
**A.** stimulation of 17,20-lyase activity ([3]; recombinant cyt b5 from E. coli, literature): stimulated 17,20-lyase activity; stimulation of lyase activity compared to the in vivo solubilized version (CYP17A1): slightly better stimulator of lyase activity; stimulation of CYP17A1 lyase activity (DHEA formed from 17-P5) (CYP17A1; 5-25 pmol cyt b5 variant): plateaued; stimulation of CYP17A1 lyase activity (CYP17A1; at slightly lower concentrations): dose-dependent stimulation

B2: cyt b5: human cytochrome b5, 134-residue bitopic membrane protein (protein, UniProt P00167 1-134, looked up)
chain: B1 chain
modifications: full-length
notes: human cytochrome b5, 134-residue bitopic membrane protein
**Q.** With B2 as the molecule, how does the “increase of the rate of the 17,20-lyase reaction” value ([3]; a molar equivalent of cyt b5) read?
**A.** 10 fold

— patent US10961286B2, “Nucleic acids, vectors, host cells, and methods for recombinantly producing water-soluble membrane proteins” (CORNELL UNIVERSITY, priority 2014, dated 2021)
